US20030031647A1, “IFN-alpha and amantadine for treating hepatitis C” (priority 1997, published 2003)

Assays:
Hepatitis C Virus = experiment: HCV RNA in cultured PBMC from chronic hepatitis C patients (RT-PCR, AMPLICOR HCV MONITOR assay); type: cell-based, Hepatitis C virus (subtype 1b prevalent) in human PBMC; conditions: for Number of cases with HCV RNA Negative / Number of cases with reduction in HCV RNA concentration >25% / Number of cases with reduction in HCV RNA concentration >50% / Number of cases with reduction in HCV RNA concentration >75%: IFN-α2A 0 IU/ml, PBMC, n = 15
Method: Antiviral Effect of Amantadine and IFN-α2A Against Hepatitis C Virus on Peripheral Blood Mononuclear Cells (PBMC) from Chronic Hepatitis C Patients
Mononuclear cells from patients with chronic hepatitis C (serum anti-HCV and HCV RNA positive with histologically proven chronic hepatitis) were analyzed for the presence of HCV RNA, using reverse transcription and PCR techniques with universal primers from the highly conserved 5′ non-coding region of the HCV genome (Navas et al., J. Hepatol. 21, 182-186 (1994)). Typing and subtyping of HCV genomes were performed by RFLP analysis of PCR products (Navas et al., J. Clin. Microbiol. 21, 317-321(1997)). For the purpose of this study, only cases infected by a single genotype have been considered, in order to minimize the possible interference of multiple genotypes, in the subject population, HCV subtype 1b was prevalent (Pernas et al., J. Gen. Virol. 76, 415-420(1995)). Thus, HCV RNA-positive PBMC obtained from 15 patients have been analyzed in vitro for the effects of treatment. PBMC from 10 matched healthy donors have been used as controls and analyzed similarly.
(§1) PBMC were isolated from heparinized venous blood by Ficoll-Hypaque gradient sedimentation. The interphase PBMC were isolated, washed twice with phosphate-buffered saline, and suspended in RPMI. The viability of these cells was assessed by trypan blue exclusion. PBMC were cultured in duplicate at a concentration of 2×10^6 viable cells/ml in 6-well tissue culture dusters, in a humid atmosphere with 5% CO2 for 7 days. The cultures have been maintained without mitogens (medium alone) or were stimulated with single mitogens (Phytohemagglutinin (PHA) or Lipopolysaccharide (LPS) or with PHA plus LPS (10 μg/ml each)(Martin et al., Cytokine 8, 313-317 (1996)). PBMC proliferation, and the possible drug-induced cytotoxicity, were measured using non-isotopic cell-proliferation and cytotoxicity assays.
The effect of experimental treatments with amantadine alone, in combination with IFN-α2A and those of IFN-α2A alone, have been established by testing HCV RNA in cultured mononuclear cells, compared with untreated PBMC from patients (Martin et al., supra); specificity controls were as described previously by Navas et al. in J. Hepatol. 21, 182-186 (1994). Treatment of mononuclear cells form healthy donors with amantadine alone, in combination with IFN-α2A or with IFN-α2A alone, served as controls. Changes in HCV RNA concentrations were measured by the AMPLICOR™ HCV MONITOR assay (Roche Diagnostic System, Inc., Branchburg).

PBMC = PBMC viability, proliferation and cytotoxicity (non-isotopic cell-proliferation and cytotoxicity assays); type: cell-based, human; conditions: for PBMC proliferation: PBMC from healthy donors
Method: as §1

[1] = amantadine 1-5 μM, cultured PBMC from HCV patients and healthy donors

NC12CC3CC(CC(C3)C1)C2 [Amantadine, tricyclo[3.3.1.1^3,7]decane-1-amine]
PBMC cultures in which HCV RNA became negative (Hepatitis C Virus; 2 μM amantadine, 1/15 patients): 7%
PBMC cultures in which HCV RNA became negative (Hepatitis C Virus; 5 μM amantadine, 3/15 patients): 20%
Number of cases with HCV RNA Negative (Hepatitis C Virus; Amantadine 1 μM): 0
Number of cases with reduction in HCV RNA concentration >25% (Hepatitis C Virus; Amantadine 1 μM): 3
Number of cases with reduction in HCV RNA concentration >50% (Hepatitis C Virus; Amantadine 1 μM): 2
Number of cases with reduction in HCV RNA concentration >75% (Hepatitis C Virus; Amantadine 1 μM): 3
Number of cases with HCV RNA Negative (Hepatitis C Virus; Amantadine 2 μM): 1
Number of cases with reduction in HCV RNA concentration >25% (Hepatitis C Virus; Amantadine 2 μM): 5
Number of cases with reduction in HCV RNA concentration >50% (Hepatitis C Virus; Amantadine 2 μM): 2
Number of cases with reduction in HCV RNA concentration >75% (Hepatitis C Virus; Amantadine 2 μM): 4
Number of cases with HCV RNA Negative (Hepatitis C Virus; Amantadine 5 μM): 3
Number of cases with reduction in HCV RNA concentration >25% (Hepatitis C Virus; Amantadine 5 μM): 2
Number of cases with reduction in HCV RNA concentration >50% (Hepatitis C Virus; Amantadine 5 μM): 2
Number of cases with reduction in HCV RNA concentration >75% (Hepatitis C Virus; Amantadine 5 μM): 3
PBMC proliferation (PBMC; amantadine 50 μM): slightly decreased PBMC proliferation
PBMC proliferation (PBMC; amantadine 500 μM): marked anti-proliferative effect
cell viability (PBMC; [1]): did not affect the cell viability
response to mitogens (PBMC; [1]): minor effects on the response to mitogens
